Experimental data published in US9522133B2, “Substituted 1,2,3,4-tetrahydrocyclopenta[b]indol-3-yl)acetic acid derivatives useful in the treatment of autoimmune and inflammatory disorders” (Arena Pharmaceuticals, Inc., priority 2008, dated 2016).
One block for each molecule: values may come before it.

Tests used:
[1] = system: peripheral blood lymphocyte (PBL) count; assay: Mouse peripheral lymphocyte lowering (PLL) assay; format: in vivo; settings: male BALB/c mice, 5 hours post-dose, vs vehicle
Experimental: (§1) Male BALB/c mice (Charles River Laboratories, Wilmington, Mass.) were housed four per cage and maintained in a humidity-controlled (40 to 60%) and temperature-controlled (68 to 72° F.) facility on a 12 h:12 h light/dark cycle (lights on at 6:30 am) with free access to food (Harlan Teklad, Orange, Calif., Rodent Diet 8604) and water. Mice were allowed one week of habituation to the animal facility before testing.
(§2) Mice were given an oral dose of Compound 5, Compound 7 or dosing vehicle (0.5% methylcellulose) in a total volume of 10 mL/kg. Peripheral blood samples were collected at 5 hours post-dose. The mice were anesthetized with isoflurane and blood was collected via cardiac puncture. A complete cell count (CBC), including lymphocyte count, was obtained using a CELL-DYN® 3700 (Abbott Laboratories, Abbott Park, Ill.) instrument. Results are presented in FIGS. 1 and 2, in which peripheral blood lymphocyte (PBL) count is shown for the 5 hour group.
as §2, with “given a 1.00 mg/kg” for “given an”, “of the 2nd enantiomer of compound 12 (isolated after resolution of compound 12 by HPLC, with a retention time of 13.9 min per the conditions reported in Example 1.29)” for “of Compound 5, Compound 7”, “(0.5% methylcellulose in sterile water)” for “(0.5% methylcellulose)”, “in FIG. 7,” for “in FIGS. 1 and 2,”

[2] = system: peripheral blood lymphocyte (PBL) count; assay: Rat peripheral lymphocyte lowering (PLL) assay; format: in vivo; settings: male Sprague-Dawley rats, 1.00 mg/kg oral dose, 5 hours post-dose, vs vehicle; FIG. 8
Experimental: as §1, with “Sprague-Dawley rats (7 weeks of age at start of study)” for “BALB/c mice”, “Laboratories)” for “Laboratories, Wilmington, Mass.)”, “two” for “four”, “(40-60%)” for “(40 to 60%)”, “(68-72°” for “(68 to 72°”, “Rats” for “Mice”
Rats were given a 1.00 mg/kg oral dose of the 2nd enantiomer of compound 12 (isolated after resolution of compound 12 by HPLC, with a retention time of 13.9 min per the conditions reported in Example 1.29) or dosing vehicle (0.5% methylcellulose in sterile water) in a total volume of 1.00 mL/kg. Peripheral blood samples were collected at 5 hours post-dose. Blood was collected via indwelling catheter. A complete cell count (CBC), including lymphocyte count, was obtained using a CELL-DYN® 3700 (Abbott Laboratories, Abbott Park, Ill.) instrument. Results are presented in FIG. 8, in which peripheral blood lymphocyte (PBL) count is shown for the 5 hour group.

[3] = system: MOG-induced EAE; assay: MOG-induced experimental autoimmune encephalomyelitis (EAE) in mice; format: in vivo, mouse; settings: female C57BL/6 mice, oral once a day day 3 to day 21, 0.3, 1 and 3 mg/kg; FIG. 10
Experimental: as §1, with “Female C57BL/6” for “Male BALB/c”, “(8 to 10 weeks of age at start of study) (Jackson Laboratory, Bar Harbor, Me.)” for “(Charles River Laboratories, Wilmington, Mass.)”, “(40-60%)” for “(40 to 60%)”, “(68-72°” for “(68 to 72°”
Mice were immunized subcutaneously, 50 μL per hind flank, with a total of 100 μg MOG35-55 peptide emulsified 1:1 with Complete Freund's adjuvant containing 4 mg/mL heat-killed Mycobacterium tuberculosis. […]
Severity of disease symptoms was scored as follows (in increasing order of severity): 0=normal; 1=limp tail OR hind limb weakness; 2=limp tail AND limb weakness/weakness of 2 or more limbs; 3=severe limb weakness or single limb paralysis; 4=paralysis of 2 or more limbs; 5=death.
Mice were dosed orally, with vehicle or the 2nd enantiomer of compound 12 (isolated after resolution of compound 12 by HPLC, with a retention time of 13.9 min per the conditions reported in Example 1.29), once a day from day 3 until day 21. […] Mice were monitored daily from day 7 onward for disease symptoms. After the last dose on day 21, disease progression was monitored daily for 2 more weeks.

[4] = Cardiac telemetry / bradycardia assay in the rat; format: in vivo; settings: male Sprague-Dawley rats, oral, vehicle PEG400, heart rate over a 120 min period; FIG. 11
Experimental: Male Sprague-Dawley rats (250-300 g at time of surgery) were implanted by Charles River Laboratories (Wilmington, Mass.) with cardiac transmitting devices (Data Sciences PhysioTel C50-PXT) into the peritoneal space, with a pressure-sensing catheter inserted into the descending aorta. Rats are allowed at least one week to recover. Rats were housed in individual cages and maintained in a humidity-controlled (30-70%) and temperature-controlled (20-22° C.) facility on a 12 h:12 h light/dark cycle (lights on at 7:00 am) with free access to food (Harlan-Teklad, Orange, Calif., Rodent Diet 8604) and water. Rats were allowed one week of habituation to the animal facility before testing.
The implanted transmitting devices transmitted continuous measurements of blood pressure (systolic, diastolic, mean arterial, pulse), heart rate, body temperature, and motor activity in freely moving conscious animals. […] Telemetry recording occurred over a 21-h period, starting at noon and continuing until 9:00 am the following day. […]
By way of illustration and not limitation, the rats were administered vehicle (PEG 400) and the 2nd enantiomer of compound 12 (isolated after resolution of compound 12 by HPLC, with a retention time of 13.9 min per the conditions reported in Example 1.29) and heart rate was then measured over a 120 min period.

[5] = system: mean ankle diameter; assay: Collagen-induced arthritis in rats (ankle diameter); format: in vivo, rat; settings: female Lewis rats, collagen injections day 0 and 6, p.o. q.d. day 0-16, 0.3, 1 and 3 mg/kg; FIG. 9
Experimental: Female Lewis rats were used in this study. Acclimated animals were anesthetized with isoflurane and given the first collagen injection (day 0). On day 6, they were anesthetized again for the second collagen injection. Collagen was prepared by making a 4 mg/mL solution in 0.01 N acetic acid. Equal volumes of collagen and incomplete Freund's adjuvant were emulsified by hand mixing until a bead of this material held its form when placed in water. Each animal received 300 μL of the mixture each time, spread over 3 subcutaneous sites on the back.
Treatment (p.o., q.d., 5 mL/kg dosing volume) began on day 0 and continued through day 16 with vehicle or compounds given at 24 h intervals. Rats were weighed on days 0, 3, 6 and 9 through 17 and caliper measurements of the ankles taken on days 9 through 17. The 2nd enantiomer of compound 12 (isolated after resolution of compound 12 by HPLC, with a retention time of 13.9 min per the conditions reported in Example 1.29) was dosed at 0.3, 1 and 3 mg/kg.

[6] = target: T1, S1P1 receptor (Homo sapiens, UniProt P21453); assay: HTRF assay for direct cAMP measurement (S1P1 agonism); format: cell-based; settings: recombinant CHO-K1 cells stably transfected with S1P1 receptors; decrease of cAMP
T1 construct: expressed in transfected cells; host or cells: CHO-K1 (ATCC CCL-61), stably transfected
From the text: Compounds were screened for agonists of the S1P1 receptor (e.g., human S1P1 receptor) using the HTRF® assay for direct cAMP measurement (Gabriel et al., Assay and Drug Development Technologies, 1:291-303, 2003) and recombinant CHO-K1 cells stably transfected with S1P1 receptors. CHO-K1 cells were obtained from ATCC® (Manassas, Va.; Catalog # CCL-61). An agonist of the S1P1 receptor was detected in the HTRF® assay for direct cAMP measurement as a compound which decreased cAMP concentration. HTRF® assay also was used to determine EC50 values for S1P1 receptor agonists.
HTRF® assay kit was purchased from Cisbio-US, Inc. (Bedford, Mass.; Catalog #62AM4PEC). The HTRF® assay supported by the kit is a competitive immunoassay between endogenous cAMP produced by the CHO-K1 cells and tracer cAMP labeled with the dye d2. The tracer binding is visualized by a monoclonal anti-cAMP antibody labeled with Cryptate. The specific signal (i.e., fluorescence resonance energy transfer, FRET) is inversely proportional to the concentration of unlabeled cAMP in the standard or sample.
The fluorescence ratio (665 nm/620 nm) of the standards (0.17 to 712 nM cAMP) included in the assay was calculated and used to generate a cAMP standard curve according to the kit manufacturer's instructions. The fluorescence ratio of the samples (test compound or compound buffer) was calculated and used to deduce respective cAMP concentrations by reference to the cAMP standard curve.
The HTRF® assay was carried out using a two-step protocol essentially according to the kit manufacturer's instructions, in 20 μL total volume per well in 384-well plate format (ProxiPlates; PerkinElmer, Fremont, Calif.; catalog #6008280). […] The plate was then further incubated at room temperature for 1 hour, after which the assay plate was read.
HTRF® readout was accomplished using a PHERAstar (BMG LABTECH Inc., Durham, N.C.) or EnVision™ (PerkinElmer, Fremont Calif.) microplate reader.

[7] = target: S1P3 receptor (Homo sapiens, UniProt Q99500); settings: attributed to agonism of the S1P3 receptor; cited from earlier work
[8] = system: experimental autoimmune myasthenia gravis (EAMG); settings: prophylactic oral administration, 1 mg/kg, three times a week, C57BL/6 mice; cited from earlier work

T1 sequence (P21453 whole entry): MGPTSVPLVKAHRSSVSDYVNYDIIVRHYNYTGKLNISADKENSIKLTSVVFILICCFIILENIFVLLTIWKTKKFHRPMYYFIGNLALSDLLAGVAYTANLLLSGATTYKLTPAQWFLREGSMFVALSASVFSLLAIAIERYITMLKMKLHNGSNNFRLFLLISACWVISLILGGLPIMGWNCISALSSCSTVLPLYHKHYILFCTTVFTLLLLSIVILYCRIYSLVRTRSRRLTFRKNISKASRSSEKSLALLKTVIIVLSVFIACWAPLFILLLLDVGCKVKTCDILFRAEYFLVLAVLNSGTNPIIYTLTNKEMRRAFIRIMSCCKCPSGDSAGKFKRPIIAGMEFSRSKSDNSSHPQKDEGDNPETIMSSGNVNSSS
Sequence of S1P3 receptor (Q99500 whole entry): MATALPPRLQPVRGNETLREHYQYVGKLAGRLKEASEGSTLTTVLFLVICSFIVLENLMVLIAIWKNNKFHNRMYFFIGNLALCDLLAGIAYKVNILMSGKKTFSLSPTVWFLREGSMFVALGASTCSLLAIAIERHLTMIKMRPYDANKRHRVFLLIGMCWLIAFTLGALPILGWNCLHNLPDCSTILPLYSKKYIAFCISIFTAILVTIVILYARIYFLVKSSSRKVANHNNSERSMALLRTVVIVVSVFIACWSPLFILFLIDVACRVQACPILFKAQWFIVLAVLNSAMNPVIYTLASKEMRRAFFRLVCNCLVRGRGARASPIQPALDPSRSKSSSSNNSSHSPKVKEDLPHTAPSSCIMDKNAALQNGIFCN

SMILES: O=C(O)C[C@H]1CCc2c1[nH]c1ccc(OCc3ccc(C4CCCC4)c(C(F)(F)F)c3)cc21 [2nd enantiomer of compound 12, (R)-2-(7-(4-cyclopentyl-3-(trifluoromethyl)benzyloxy)-1,2,3,4-tetrahydrocyclopenta[b]indol-3-yl)acetic acid]
activity for inducing PBL lowering (lymphopenia) ([1]; 1.00 mg/kg oral dose, FIG. 7): exhibited activity for inducing PBL lowering (lymphopenia)
activity for inducing PBL lowering (lymphopenia) [2]: exhibited activity for inducing PBL lowering (lymphopenia)
reduction of severity of disease symptoms (clinical score) in EAE [3]: exhibited activity in the mouse EAE assay
reduction of heart rate (bradycardia) [4]: no or substantially no reduction of heart rate
reduction of mean ankle diameter [5]: exhibited activity for reducing mean ankle diameter

EC50 [6]: 16 nM
SMILES: N#Cc1cc(COc2ccc3[nH]c4c(c3c2)CCC4CC(=O)O)cc(OC(F)(F)F)c1 (stereo not drawn) [Compound 4, 2-(7-(3-cyano-5-(trifluoromethoxy)benzyloxy)-1,2,3,4-tetrahydrocyclopenta[b]indol-3-yl)acetic acid]

SMILES: CC(C)Oc1ccc(COc2ccc3[nH]c4c(c3c2)CCC4CC(=O)O)cc1C#N (stereo not drawn) [Compound 5, 2-(7-(3-cyano-4-issopropoxybenzyloxy)-1,2,3,4-tetrahydrocyclopenta[b]indol-3-yl)acetic acid]
activity for inducing PBL lowering (lymphopenia) ([1]; oral dose, FIGS. 1 and 2): exhibited activity for inducing PBL lowering (lymphopenia)

SMILES: N#Cc1cc(COc2ccc3[nH]c4c(c3c2)CCC4CC(=O)O)ccc1OC(F)(F)F (stereo not drawn) [Compound 7, 2-(7-(3-cyano-4-(trifluoromethoxy)benzyloxy)-1,2,3,4-tetrahydrocyclopenta[b]indol-3-yl)acetic acid]
activity for inducing PBL lowering (lymphopenia) ([1]; oral dose, FIGS. 1 and 2): exhibited activity for inducing PBL lowering (lymphopenia)

EC50 [6]: 9 nM
SMILES: O=C(O)CC1CCc2c1[nH]c1ccc(OCc3ccc(C(F)(F)F)cc3C(F)(F)F)cc21 (stereo not drawn) [Compound 8, 2-(7-(2,4-bis(trifluoromethyl)benzyloxy)-1,2,3,4-tetrahydrocyclopenta[b]indol-3-yl)acetic acid]

EC50 [6]: 26 nM
SMILES: O=C(O)CC1CCc2c1[nH]c1ccc(OCc3cc(C(F)(F)F)cc(C(F)(F)F)c3)cc21 (stereo not drawn) [Compound 10, 2-(7-(3,5-bis(trifluoromethyl)benzyloxy)-1,2,3,4-tetrahydrocyclopenta[b]indol-3-yl)acetic acid]

SMILES: CCCCCCCCc1ccc(CCC(N)(CO)CO)cc1 [FTY720]
adverse event in clinical trials [7]: transient asymptomatic bradycardia
development of EAMG [8]: completely prevented
